Assay results from ChEMBL document CHEMBL3259791, “Discovery of (E)-3-((styrylsulfonyl)methyl)pyridine and (E)-2-((styrylsulfonyl)methyl)pyridine derivatives as anticancer agents: synthesis, structure-activity relationships, and biological activities” (J Med Chem, 2014).
Activity calls are given as the source filed them. The calls are words filed in the database; no cut-off is given here.

Columns and labels:
[1] = Cmax in mouse at 40 mg/kg, po after 24 hrs; format: ADME, organism-based; design: dose 40 mg/kg, route oral; details: in vivo
HCT-116 = experiment: Ratio of ON01910 IC50 to compound IC50 for human HCT116 cells; format: functional
PANC-1 [2] = experiment: Ratio of ON01910 IC50 to compound IC50 for human PANC1 cells; format: functional
A2780 [3] = experiment: Antitumor activity against human A2780 cells xenografted in mouse assessed as delay tumor growth at 50 mg/kg, po administered every second day for 2 weeks; format: functional
A2780 [4] = experiment: Ratio of ON01910 IC50 to compound IC50 for human A2780 cells; format: functional
[5] = Oral bioavailability (0 to t) in mouse at 40 mg/kg after 24 hrs; format: ADME, organism-based; details: in vivo
[6] = AUC (0 to t) in mouse at 40 mg/kg, po after 24 hrs; format: ADME, organism-based; design: time < 24 hr, dose 40 mg/kg, route oral; details: plasma
WI-38 = experiment: Selectivity ratio of IC50 for human WI38 cells to IC50 for ER negative human MDA-MB-231 cells; format: functional
LNCaP = experiment: Ratio of ON01910 IC50 to compound IC50 for AR positive human LNCAP cells; format: functional
A2780 [7] = experiment: Antitumor activity against human A2780 cells xenografted in mouse assessed as increase in life span at 50 mg/kg, po administered every second day for 2 weeks; format: functional
PANC-1 [8] = experiment: Selectivity ratio of IC50 for human WI38 cells to IC50 for human PANC1 cells; format: functional
[9] = Cmax in mouse at 10 mg/kg, po after 24 hrs; format: ADME, organism-based; design: dose 10 mg/kg, route oral; details: in vivo
[10] = AUC (0 to t) in mouse at 10 mg/kg, po after 24 hrs; format: ADME, organism-based; design: time < 24 hr, dose 10 mg/kg, route oral; details: plasma
A2780 [11] = experiment: Reduction in CDC25C level in human A2780 cells at 1 uM after 24 hrs by Western blot analysis; format: functional, cell-based

| Compound | Cmax [1] [nM] | Ratio IC50 (HCT-116) | Ratio IC50 (PANC-1 [2]) | Activity (A2780 [3]) [%] | Ratio IC50 (A2780 [4]) | bioavailability [5] [%] | AUC(0-t) at 24 h [6] [µM·h] | Ratio IC50 (WI-38) | Ratio IC50 (LNCaP) | Activity (A2780 [7]) [%] | Ratio IC50 (PANC-1 [8]) | Cmax [9] [nM] | AUC(0-t) at 24 h [10] [µM·h] | inhibition (A2780 [11]) |
| --- | --- | --- | --- | --- | --- | --- | --- | --- | --- | --- | --- | --- | --- | --- |
| COc1cc(OC)c(/C=C/S(=O)(=O)Cc2ccc(OC)c(N)n2)c(OC)c1 | 2500 | 10 | 10 | 52 | 10 | 44 | 23.1 | >1400 | 10 | 80 | >1400 |  |  |  |
| COc1cc(OC)c(/C=C/S(=O)(=O)Cc2ccc(OC)c(NS(C)(=O)=O)n2)c(OC)c1 |  |  |  |  |  |  |  |  |  |  |  | 2100 | 5.6 | Active |
